Measured values from ChEMBL document CHEMBL5154907, “Discovery and Anti-Inflammatory Activity Evaluation of a Novel CDK8 Inhibitor through Upregulation of IL-10 for the Treatment of Inflammatory Bowel Disease In Vivo” (J Med Chem, 2022).
Calls of active or inactive are those of the source. No cut-off for these calls is given here.

How the values were obtained:
[1] = biological target: T1, Toll-like receptor 7 (Mus musculus) (UniProt P58681); experiment: Inhibition of TLR7 expression in R848-stimulated mouse BMDC cells at 1 to 4 uM treated for 2 hrs followed by R848 stimulation for 12 hrs by western blot analysis; assay type: cell-based; details: dose 1-4 µM, time 14.0 hrs, DDE = dose-dependent effect
T1 sequence (whole entry): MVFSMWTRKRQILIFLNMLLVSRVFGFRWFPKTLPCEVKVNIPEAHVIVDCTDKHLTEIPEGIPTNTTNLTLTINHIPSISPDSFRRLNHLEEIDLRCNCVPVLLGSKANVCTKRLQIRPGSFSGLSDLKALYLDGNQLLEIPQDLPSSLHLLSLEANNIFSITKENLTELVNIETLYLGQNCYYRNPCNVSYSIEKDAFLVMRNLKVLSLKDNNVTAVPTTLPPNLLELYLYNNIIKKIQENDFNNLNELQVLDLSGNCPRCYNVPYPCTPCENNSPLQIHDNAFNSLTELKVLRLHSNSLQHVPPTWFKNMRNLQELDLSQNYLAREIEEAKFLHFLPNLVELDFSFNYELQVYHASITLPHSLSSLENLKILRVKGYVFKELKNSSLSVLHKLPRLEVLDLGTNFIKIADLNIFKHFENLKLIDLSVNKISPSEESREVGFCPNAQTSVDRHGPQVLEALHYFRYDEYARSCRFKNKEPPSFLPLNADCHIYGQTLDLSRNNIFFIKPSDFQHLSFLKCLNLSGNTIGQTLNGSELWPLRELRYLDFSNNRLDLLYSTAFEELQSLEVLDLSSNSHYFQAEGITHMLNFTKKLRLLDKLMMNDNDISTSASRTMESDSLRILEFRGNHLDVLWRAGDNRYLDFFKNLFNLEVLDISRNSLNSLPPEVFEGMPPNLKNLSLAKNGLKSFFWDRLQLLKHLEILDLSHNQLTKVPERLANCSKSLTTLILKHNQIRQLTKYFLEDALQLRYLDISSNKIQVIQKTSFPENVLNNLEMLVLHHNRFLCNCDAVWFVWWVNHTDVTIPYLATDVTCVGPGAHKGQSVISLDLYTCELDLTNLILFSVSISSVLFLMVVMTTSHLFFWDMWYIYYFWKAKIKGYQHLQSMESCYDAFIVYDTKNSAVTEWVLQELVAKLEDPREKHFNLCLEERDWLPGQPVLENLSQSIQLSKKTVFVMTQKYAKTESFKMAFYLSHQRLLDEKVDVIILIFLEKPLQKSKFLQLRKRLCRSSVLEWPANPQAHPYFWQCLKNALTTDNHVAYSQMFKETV

[2] = Cmax in Sprague-Dawley rat at 10 mg/kg, po measured for 3 to 1440 mins by HPLC analysis; assay type: ADME, organism-based; details: in vivo
Mus musculus [3] = experiment: Anti-inflammatory activity in C57BL/6 mouse model of inflammatory bowel disease assessed as decrease in DSS-induced IL-6 levels in colon tissue at 5 to 20 mg/kg, po daily measured after 10 days by ELISA method; assay type: functional, organism-based; details: dose 5-20 mg/kg, time 10.0 day
[4] = Acute toxicity in 12 hr fasted ICR mouse assessed as toxic reaction at 2000 mg/kg, po measured daily for 7 days; assay type: organism-based; details: in vivo, 168 h, time 7 day
Mus musculus [5] = experiment: Anti-inflammatory activity in C57BL/6 mouse model of inflammatory bowel disease assessed as reduction in DSS-induced crypt loss in colon tissue at 5 to 20 mg/kg, po daily measured after 10 days by hematoxylin and eosin staining based histopathological analysis; assay type: functional, organism-based; details: dose 5-20 mg/kg, time 10.0 day
Mus musculus [6] = experiment: Anti-inflammatory activity in C57BL/6 mouse model of inflammatory bowel disease assessed as decrease in DSS-induced JNK phosphorylation in colon tissue at 5 to 20 mg/kg, po measured after 10 days by western blot analysis; assay type: functional, organism-based; details: dose 5-20 mg/kg, time 10.0 day, DDE = dose-dependent effect
Mus musculus [7] = experiment: Anti-inflammatory activity in DSS-induced C57BL/6 mouse model of inflammatory bowel disease assessed as reduction in colitis development by measuring disease activity index score at 5 to 20 mg/kg, po administered measured after 7 days; assay type: functional, organism-based; details: dose 5-20 mg/kg, time 7.0 day, DDE = dose-dependent effect

CCc1ccccc1NC(=O)c1cncc(-c2ccc(C(=O)N3CCNCC3)cc2)c1
inhibition [1]: Dde | Cmax [2]: 237 ng/mL | Activity (Mus musculus [3]): Active | Activity [4]: Non-Toxic | Activity (Mus musculus [5]): Active | Activity (Mus musculus [6]): Dde | Activity (Mus musculus [7]): Dde
